Laboratory results taken from patent US20260284011A1, “COMPOUNDS FOR RESTORING SUSCEPTIBILITY TO BETA-LACTAM ANTIBIOTICS” (UNIVERSITY OF NOTRE DAME DU LAC, priority 2023, published 2026).

What was measured:
strain NRS21 = assay: Checkerboard assay; type: cell-based, Staphylococcus aureus; conditions: 24-h incubation
Experimental: (§1) Synergy with β-Lactams and Time-Kill Assays. […] In this assay, the antibiotics are compared individually and in combination. The fractional inhibitory concentration (FIC) index is calculated. Synergy is defined as an FIC value ≤0.5, indifference as FIC >0.5 to ≤4, and antagonism as FIC >4.
(§2) Checkerboard assay. […] The final inoculum in each well was 5×10^5 CFU·mL^−1, and the result was read after 24-h incubation at 37° C. The fractional inhibitory concentration (FIC) index was calculated for each combination. An FIC index of ≤0.5 is considered synergistic. The experiment was done in triplicates.

additional MRSA strains = assay: Checkerboard assay; type: cell-based, Staphylococcus aureus
Experimental: as §1, §2

[1] = tested on: S. aureus NRS144pCN52RI-Venus; assay: Bacterial growth inhibition (OD600) in the fluorescent screening assay; type: cell-based, Staphylococcus aureus; conditions: compound at 100 mg/L^−1; OD600 after 2 h
Experimental: (§3) The collection of the 100 compounds from the in-silico search was screened against S. aureus NRS144pCN52RI-Venus. The screening strategy was as follows. Bacteria grown to OD600 of 0.25 were exposed concurrently to CBAP (10 mg·L^−1) and the test compound (100 mg·L^−1). Fluorescence was recorded after two hours of incubation. OD600 values were also recorded to identify compounds with inherent antibacterial activity. Compound 1 (Chart 1) emerged—82% diminished fluorescence as an indication of the extent of BlaR inhibition—as a suitable template for structure elaboration. This effort led to the synthesis of several dozen benzimidazole and imidazole compounds. The progression of the iterative design is depicted in Chart 1 for four compounds, culminating in 4. […] The X-ray structures for the complexes of compounds 2 (non-covalent) and 4 (covalent) with the BlaR sensor domain are shown respectively in FIG. 2b (2.0 Å resolution) and FIG. 2c (1.97 Å resolution). Compound 4 makes a covalent bond with the catalytic Ser389 and creates a network of hydrogen bonds with the BlaR active site (FIG. 2c).
(§4) Fluorescent assay for screening of BlaR potential inhibitors. A 3-mL portion of lysogeny broth (LB) medium was inoculated with NRS144pCN52RI Venus from frozen stocks and grown overnight at 37° C. The overnight culture was then diluted 1:150 fold with fresh LB containing […] of erythromycin and incubated at 37° C. to an OD600 of 0.3, at which point fluorescence was induced by the addition of CBAP to a final concentration of 10 μg·mL^−1. The culture was aliquoted (99 L) into 96-well plate and 1 L of inhibitor solution (1 mg·mL^−1 in DMSO) was added to each well. Negative control (DMSO without CBAP) and positive control (CBAP without inhibitor) were included. The plate was incubated at 30° C. for 2 h with intermittent shaking. Fluorescence and OD600 measurements were taken by a Cytation-5 multimode microplate reader. Percent inhibition of BlaR and bacterial growth were calculated using absorbance unit (AU) and OD600 values of each sample entered into this formula: […]

[2] = tested on: active-site serine penicillin-binding proteins; assay: Inhibition of penicillin-binding proteins
BlaR = BlaR (Staphylococcus aureus, UniProt P18357); assay: Live-cell fluorescent assay for BlaR inhibition (Venus reporter); type: cell-based, S. aureus NRS144pCN52RI-Venus; conditions: compound at 100 mg/L^−1; CBAP 10 mg·L^−1; fluorescence after 2 h
BlaR, sequence (P18357 whole entry): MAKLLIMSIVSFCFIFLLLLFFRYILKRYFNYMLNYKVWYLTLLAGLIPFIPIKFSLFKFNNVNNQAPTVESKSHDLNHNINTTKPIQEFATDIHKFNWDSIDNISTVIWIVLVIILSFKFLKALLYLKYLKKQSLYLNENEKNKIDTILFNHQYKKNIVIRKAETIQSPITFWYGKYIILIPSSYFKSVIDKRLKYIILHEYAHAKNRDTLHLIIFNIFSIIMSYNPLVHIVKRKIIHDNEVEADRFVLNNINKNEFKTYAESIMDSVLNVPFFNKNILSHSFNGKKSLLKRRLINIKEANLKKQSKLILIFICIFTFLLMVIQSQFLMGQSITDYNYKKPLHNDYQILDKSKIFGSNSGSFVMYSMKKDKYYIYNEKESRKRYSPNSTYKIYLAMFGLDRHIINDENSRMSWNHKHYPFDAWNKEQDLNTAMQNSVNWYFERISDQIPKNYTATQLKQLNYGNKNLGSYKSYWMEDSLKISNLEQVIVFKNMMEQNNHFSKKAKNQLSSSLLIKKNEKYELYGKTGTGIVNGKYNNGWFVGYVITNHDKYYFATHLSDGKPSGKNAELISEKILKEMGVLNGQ
Description: Live-Cell Fluorescent Assay in Discovery and Mechanism of Action. We conceived of fluorescent constructs in the bla operon, for the purpose of screening (FIG. 2a). We removed the gene for the β-lactamase (blaZ) and put in its place individually the genes for the Green Fluorescent Protein (GFP), Venus (a yellow-fluorescent protein) or mCherry (a red-fluorescent protein) in the template plasmid pCN52. The three plasmids were named pCN52RI, pCN52RI-Venus and pCN52RI-mCherry, respectively. The genes for the fluorescent proteins were transcribed under the promoter of the blaZ gene and were regulated by the proteins BlaR and BlaI, as is the case for the wild-type bla operon.
We transformed separately S. aureus NRS144—a laboratory strain that accepts a foreign gene and harbors neither the bla nor the mec operons—with each of these plasmids. […] When induced, the fluorescent protein is produced and is detected (akin to expression of the resistance genes blaZ or mecA in typical MSSA and MRSA). […] The transformed strains were grown in tryptic soy broth medium for overnight culture and strain maintenance and incubated in cation-adjusted Mueller-Hinton broth medium for inhibitor screening in a 96-well microplate format. The culture without CBAP addition was the negative control. In order to select a desirable reporter construct, we compared the intensity of the fluorescence produced from each construct at the wavelengths given in FIG. 2a using the Cytation-5 multi-mode microplate reader. Among the three constructs, pCN52RI-Venus produced the best fluorescence intensity and pCN52RI-mCherry was the second best (FIG. 4).
as §3, §4

HepG2 (liver) cells = assay: XTT cytotoxicity assay; type: cell-based; conditions: HepG2 cells
Experimental: (§5) We evaluated additionally the in vitro cytotoxicity of compound 4 using the XTT assay with HepG2 (liver) cells. Cell viability was 100% at 64 mg·L^−1.
(§6) XTT assay. Compound 4 was evaluated in triplicate in the XTT assay (XTT cell proliferation assay, Canvax, Spain) with HepG2 cells, as described previously (Eur. J. Med. Chem. 253, 115329 (2023)). GraphPad Prism 5 (San Diego, CA) was used to calculate IC50 values.

XTT cytotoxicity assay = type: cell-based; conditions: human, hepg2 cells; HepG2; at 64 mg·L^−1; read-out: Cell viability
Experimental: as §5, §6

HFH29568 [3] = assay: Time-kill assay; type: cell-based, Staphylococcus aureus
Experimental: Time-kill assay. MRSA strains (NRS21, NRS70, NRS382, NRS404, HFH 29568, and HFH 30495) were grown overnight on tryptic soy agar plate. Bacteria were diluted in Muller-Hinton broth containing 2% NaCl to […] CFU·mL^−1. […] For MEM and CPT, cation-adjusted Muller-Hinton broth without 2% NaCl was used. Aliquots were taken at 0, 3, 6, 9, 12, and 24 h and were diluted serially for bacterial counts. The assay was done in triplicate.

HFH29568 [4] = assay: Checkerboard assay; type: cell-based, Staphylococcus aureus
Experimental: as §1, §2

HI049 = assay: Checkerboard assay; type: cell-based, Staphylococcus aureus
Experimental: as §1, §2

SMILES | FIC index, 4 with FOX (strain NRS21) | FIC index, 4 with OXA (strain NRS21) | FIC, 4 with OXA, MEM, FOX, or CPT (additional MRSA strains) | % Inhibition of bacterial growth [1] [%] | inhibitory properties against penicillin-binding proteins [2] | % Inhibition of BlaR (BlaR) [%] | in vitro cytotoxicity (HepG2 (liver) cells) | viability (XTT cytotoxicity assay) [%] | log10 decrease in bacterial growth (HFH29568 [3]; MEM by itself, at 6 h) [log10] | activity of MEM by itself (HFH29568 [3]; by 24 h) | FIC index, 4 with MEM (HFH29568 [4]) | FIC index, 4 with MEM (HI049)
N#Cc1ccc2nc(SCB(O)O)n(Cc3ccc(C(F)(F)F)cc3C(F)(F)F)c2c1 [Compound 4, (((1-(2,4-bis(trifluoro-methyl)benzyl)-6-cyano-1H-benzo[d]imidazol-2-yl)thio)methyl)boronic acid] | 0.25 | 0.19 | < 0.25 | 25 | modest inhibitory properties | 98 | not toxic to HepG2 cells | 100 |  |  |  | 
C[C@@H](O)[C@H]1C(=O)N2C(C(=O)O)=C(S[C@@H]3CN[C@H](C(=O)N(C)C)C3)[C@H](C)[C@H]12 [MEM, meropenem] |  |  |  |  |  |  |  |  | 2 | no activity | 0.09 | 0.19
